pIC50: −log10 of the molar value.
Legend:
[1] = target: JAK1 (Homo sapiens, UniProt P23458); experiment: JAK1 kinase ADP-Glo assay (Example 60)
[2] = target: JAK2 (Homo sapiens, UniProt O60674); experiment: JAK2 kinase ADP-Glo assay (Example 60)
[3] = target: JAK3 (Homo sapiens, UniProt P52333); experiment: JAK3 kinase ADP-Glo assay (Example 60)
[4] = target: T1, TYK2 (Homo sapiens, UniProt P29597); experiment: TYK2 kinase ADP-Glo assay (Example 60)
T1 sequence (P29597 871-1187 limits assumed): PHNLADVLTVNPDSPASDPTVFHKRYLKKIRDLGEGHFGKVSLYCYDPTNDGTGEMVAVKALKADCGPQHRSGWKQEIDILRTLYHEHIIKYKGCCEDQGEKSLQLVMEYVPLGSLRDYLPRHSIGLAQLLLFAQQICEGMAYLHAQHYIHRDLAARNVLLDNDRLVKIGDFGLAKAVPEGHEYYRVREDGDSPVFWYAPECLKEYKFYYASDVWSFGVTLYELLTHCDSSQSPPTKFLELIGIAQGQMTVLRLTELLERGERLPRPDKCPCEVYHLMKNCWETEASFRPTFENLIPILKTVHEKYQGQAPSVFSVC

Sequence of JAK2 (O60674 826-1132 limits assumed): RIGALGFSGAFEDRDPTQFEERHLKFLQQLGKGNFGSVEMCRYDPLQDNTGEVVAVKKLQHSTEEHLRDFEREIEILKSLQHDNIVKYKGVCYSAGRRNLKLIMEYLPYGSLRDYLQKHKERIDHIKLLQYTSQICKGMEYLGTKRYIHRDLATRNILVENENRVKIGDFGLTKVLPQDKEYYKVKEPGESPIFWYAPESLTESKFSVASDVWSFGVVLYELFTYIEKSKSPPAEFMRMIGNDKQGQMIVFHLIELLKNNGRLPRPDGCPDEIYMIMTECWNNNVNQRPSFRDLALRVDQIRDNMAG
Sequence of JAK3 (P52333 795-1124 limits assumed): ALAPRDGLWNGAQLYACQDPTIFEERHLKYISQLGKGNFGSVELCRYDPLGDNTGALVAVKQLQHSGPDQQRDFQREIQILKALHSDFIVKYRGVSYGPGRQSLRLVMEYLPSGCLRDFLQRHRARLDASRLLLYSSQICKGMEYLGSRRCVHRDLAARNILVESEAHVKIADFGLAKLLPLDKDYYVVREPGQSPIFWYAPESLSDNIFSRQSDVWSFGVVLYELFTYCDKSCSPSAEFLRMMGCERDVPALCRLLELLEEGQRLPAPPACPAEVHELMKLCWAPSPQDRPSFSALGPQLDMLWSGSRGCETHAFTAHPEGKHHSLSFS
Sequence of JAK1 (P23458 850-1154 limits assumed): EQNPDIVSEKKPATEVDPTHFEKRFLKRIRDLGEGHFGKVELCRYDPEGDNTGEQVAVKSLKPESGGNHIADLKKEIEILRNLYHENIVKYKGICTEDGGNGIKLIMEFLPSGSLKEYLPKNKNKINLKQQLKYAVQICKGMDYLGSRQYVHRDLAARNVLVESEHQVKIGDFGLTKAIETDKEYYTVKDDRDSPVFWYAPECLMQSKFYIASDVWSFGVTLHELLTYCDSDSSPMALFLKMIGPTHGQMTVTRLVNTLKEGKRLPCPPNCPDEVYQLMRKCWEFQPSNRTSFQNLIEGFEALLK

pIC50 [1]	pIC50 [2]	pIC50 [3]	pIC50 [4]	Structure (SMILES)
9.82	9.36	8.95	8.03	CCc1cc(O)c(F)cc1-c1ccc2c(-c3nc4c([nH]3)CN(CC3CC3)C4)n[nH]c2c1 [MDI-208, 4-(3-(5-(cyclopropylmethyl)-1,4,5,6-tetrahydropyrrolo[3,4-d]imidazol-2-yl)-1H-indazol-6-yl)-5-ethyl-2-fluorophenol]
9.46	8.95	9.01	7.50	CCc1cc(O)c(F)cc1-c1ccc2c(-c3nc4c([nH]3)CN(CC3CCC3)C4)n[nH]c2c1 [MDI-210, 4-(3-(5-(cyclobutylmethyl)-1,4,5,6-tetrahydropyrrolo[3,4-d]imidazol-2-yl)-1H-indazol-6-yl)-5-ethyl-2-fluorophenol]
9.52	9.56	9.45	8.55	CCc1cc(O)c(F)cc1-c1ccc2c(-c3nc4c([nH]3)CN(C(=O)c3ccnnc3)C4)n[nH]c2c1 [MDI-214, (2-(6-(2-ethyl-5-fluoro-4-hydroxyphenyl)-1H-indazol-3-yl)-pyrrolo[3,4-d]imidazol-5-(1H,4H,6H)-yl)(pyridazin-4-yl)ketone]
9.71	9.56	9.51	8.80	CCc1cc(O)c(F)cc1-c1ccc2c(-c3nc4c([nH]3)CN(C(=O)c3cccnn3)C4)n[nH]c2c1 [MDI-215, (2-(6-(2-ethyl-5-fluoro-4-hydroxyphenyl)-1H-indazol-3-yl)-pyrrolo[3,4-d]imidazol-5-(1H,4H,6H)-yl)(pyridazin-3-yl)ketone]
9.87	9.63	9.61	8.79	CCc1cc(O)c(F)cc1-c1ccc2c(-c3nc4c([nH]3)CN(C(=O)N3CC[C@H](O)C3)C4)n[nH]c2c1 [MDI-216, (S)-(2-(6-(2-ethyl-5-fluoro-4-hydroxyphenyl)-1H-indazol-3-yl)-4,6-dihydropyrrolo[3,4-d]imidazol-5-(1H)-yl)(3-hydroxylpyrrolidin-1-yl)ketone]
9.08	9.21	9.02	8.76	CCc1cc(O)c(F)cc1-c1ccc2c(-c3nc4c([nH]3)CN(S(=O)(=O)C3CC3)C4)n[nH]c2c1 [MDI-218, 4-(3-(5-(cyclopropanesulfonyl)-1,4,5,6-tetrahydropyrrolo[3,4-d]imidazol-2-yl)-1H-indazol-6-yl)-5-ethyl-2-fluorophenol]
8.86	8.86	8.64	8.73	CCc1cc(O)c(F)cc1-c1ccc2c(-c3nc4c([nH]3)CN(S(=O)(=O)C3CCC3)C4)n[nH]c2c1 [MDI-219, 4-(3-(5-(cyclobutylsulfonyl)-1,4,5,6-tetrahydropyrrolo[3,4-d]imidazol-2-yl)-1H-indazol-6-yl)-5-ethyl-2-fluorophenol]
8.69	8.86	8.50	8.25	CCc1cc(O)c(F)cc1-c1ccc2c(-c3nc4c([nH]3)CN(S(=O)(=O)C3CCCC3)C4)n[nH]c2c1 [MDI-220, 4-(3-(5-(cyclopentylsulfonyl)-1,4,5,6-tetrahydropyrrolo[3,4-d]imidazol-2-yl)-1H-indazol-6-yl)-5-ethyl-2-fluorophenol]
9.89	9.44	9.42	8.12	CCc1cc(O)c(F)cc1-c1ccc2c(-c3nc4c([nH]3)CN(Cc3cnn(C)c3)C4)n[nH]c2c1 [MDI-221, 5-ethyl-2-fluoro-4-(3-(5-((1-methyl-1H-pyrazol-4-yl)methyl)-1,4,5,6-tetrahydropyrrolo[3,4-d]imidazol-2-yl)-1H-indazol-6-yl)phenol]
7.24	7.43			CCc1cc(O)c(F)cc1-c1ccc2c(-c3nc4c([nH]3)CN(C(=O)N3CC[C@H](O)C3)C4)n[nH]c2n1 [MDI-255, (S)-(2-(6-(2-ethyl-5-fluoro-4-hydroxyphenyl)-1H-pyrazolo[3,4-b]pyridine-3-yl)-4,6-dihydropyrrolo[3,4-d]imidazol-5(1H)-yl)(3-hydroxylpyrrolidin-1-yl)ketone]

Reference: patent US12180215B2, “Substituted pyrrolo[3,4-d]imidazoles as JAK inhibitors” (HENAN MEDINNO PHARMACEUTICAL TECHNOLOGY CO., LTD., priority 2019, dated 2024)
